{"source": "patent US10641778B2", "about": "“System and method for analysis of peptide synthesis fidelity” (Roche Sequencing Solutions, Inc., priority 2015, dated 2020)", "key": {"[1]": {"test_system": "engineered form of the protein streptavidin", "assay": "Detection of acetic acid contamination of the arginine synthesis reagent: streptavidin signal output on control peptide features", "assay_type": "binding", "description": "In another example according to the present disclosure, a control peptide sequence was used to identify the presence of a contaminant in the arginine synthesis reagent. Preliminarily, it was determined using the methods described herein that the control peptide sequence [N]-GYERPGWKLAG-[C] (SEQ ID NO:19) can be used to detect the presence (or absence) of acetic acid in one or more of the synthesis reagents used to synthesize a population of peptides including the control peptide sequence GYERPGWKLAG (SEQ ID NO:19). In the present example, peptide sequences were synthesized from the C-terminus to the N-terminus. Using this synthesis scheme, it was determined that the amino acid Pro in the 5th position from the N-terminus of SEQ ID NO:19 is susceptible to acetylation in the presence of acetic acid. Without being limited by theory, it is hypothesized that as the direction of synthesis is from the C-terminus to the N-terminus, instead of addition of the amino acid Arg in the 4th position from the N-terminus following addition of the amino acid Pro in the 5th position, acetic acid was able to form an amino acid bond with the terminal proline.\nMoreover, the concentration of acetic acid in a synthesis reagent can be correlated with the signal output characteristic of the interaction of the streptavidin receptor with the control peptide feature (SEQ ID NO:19) or the truncated version thereof (SEQ ID NO:20). […] However, the amino acids at the N-terminus should be selected such that there is a detectable difference in the interaction of streptavidin with the alternative control peptide.\nTo illustrate the detection of varying concentrations of acetic acid in a peptide synthesis reagent, four different NPPOC-protected arginine reagent solutions were prepared with differing concentrations (volume %) of acetic acid. A first arginine solution included no detectable amount of acetic acid (i.e., about 0.00%), a second arginine solution included 0.03% acetic acid, a third arginine solution included a 0.18% acetic acid, and a fourth arginine solution included 0.38% acetic acid. Four different synthetic peptide populations were synthesized using one of the four arginine solutions, and the signal output characteristic of the interaction of the streptavidin receptor with each of the control peptide features (SEQ ID NO:19) or the truncated versions thereof (SEQ ID NO:20) was determined (FIG. 24). […] In the present example, the raw signal output associated with the arginine reagent solution including 0.03% acetic acid was 1000 units, whereas the signal output associated with the arginine reagent solutions including 0.38% acetic acid was about 30,000 units. […]"}, "[2]": {"target": "streptavidin (Streptomyces avidinii, UniProt P22629)", "sequence (P22629 25-183, species assumed)": "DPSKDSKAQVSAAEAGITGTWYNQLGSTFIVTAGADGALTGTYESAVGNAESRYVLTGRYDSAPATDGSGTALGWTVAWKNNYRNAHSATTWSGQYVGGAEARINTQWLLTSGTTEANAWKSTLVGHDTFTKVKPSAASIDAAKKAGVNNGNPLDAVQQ", "assay": "Streptavidin receptor interaction with control peptide features on a peptide array, fluorescence signal (substitution/deletion profiles)", "assay_type": "binding", "conditions": "raw fluorescence signal of streptavidin interaction with control peptide; variants at 6th position from N-terminus (FIG. 8A)", "text": "A number of receptor molecules 616 are shown as interacting with the peptide feature 606. Interaction of the receptor molecules 616 with the peptide feature 606 can include binding, catalysis of (or participation in) a reaction including peptides within the peptide feature 606, digestion of the peptides within the feature 606, the like, and combinations thereof. In the present example shown in FIGS. 6A-6C, the receptor 616 was used in the identification of the peptide binder sequence represented by the peptides in the feature 606 (i.e., [N]-Gly-Phe-Glu-Asp-Tyr-Leu-Gly-Glu-Tyr-His-Gly-[C] (SEQ ID NO:1)). […] In one aspect, the interaction of the receptor molecules 616 with the population of peptide features 602 on the peptide array 600 can be detected, for example, by labelling the receptor molecules 616 with a detectable tag 618 (FIG. 6C). […]\nIn a next step 660 of the method 650, the synthetic peptide population is interrogated in the presence of a receptor having an affinity for the peptide binder sequences encoded by the control peptides. […] Thereafter, in a step 662 of the method 650, an output of the peptide-receptor interaction is detected. […] Accordingly, based on the output detected in the step 662, a step 664 of the method 650 can include assessing the fidelity of amino acid incorporation. […]"}}, "note": "No end group written: not given here.", "data": [{"substance": "GYERPGWKLAG [GYERPGWKLAG (SEQ ID NO:19), control peptide to detect acetic acid contamination in synthesis reagents]", "values": [{"measurement": "increase in raw signal", "setting": "[1]; acetic acid in arginine reagent raised from 0.03% to 0.38%", "result": 30, "unit": "fold"}, {"measurement": "raw signal output", "setting": "[1]; control peptide features (SEQ ID NO:19 or truncated SEQ ID NO:20) synthesized with arginine reagent solution including 0.03% acetic acid (FIG. 24)", "result": 1000, "unit": "units"}, {"measurement": "signal output", "setting": "[1]; control peptide features (SEQ ID NO:19 or truncated SEQ ID NO:20) synthesized with arginine reagent solution including 0.38% acetic acid (FIG. 24)", "result": "about 30,000 units"}]}, {"substance": "*PGWKLAG (Ac-PGWKLAG) [*PGWKLAG (SEQ ID NO:20), *P is acetylated N-terminal Pro]", "values": [{"measurement": "affinity towards an engineered form of the protein streptavidin", "setting": "[1]; acetylated truncated peptide on array (FIG. 24)", "result": "exhibit intrinsic affinity"}]}, {"substance": "GWTHPMFEQKG [GWTHPMFEQKG (SEQ ID NO:2)]", "values": [{"measurement": "average raw signal", "setting": "[2]", "result": "18,000 units"}]}]}
